Experimental data taken from patent publication US10315999B2, “Processes for the preparation of pesticidal compounds” (Dow AgroSciences LLC, priority 2013, dated 2019).
Structures can show the parent of a compound that is named as a salt. Where two headings read alike, the source gives them in different places.

Columns and labels:
[1] = tested on: Sweetpotato Whitefly Crawler (Bemisia tabaci) (BEMITA); assay: Bioassay on Sweetpotato Whitefly Crawler, cotton plant foliar spray; format: in vivo; settings: read-out: BEMITA rating (% Control of Mortality, Abbott corrected)
Procedure: Cotton plants grown in 3-inch pots, with 1 small (3-5 cm) true leaf, were used at test substrate. The plants were placed in a room with whitely adults. Adults were allowed to deposit eggs for 2-3 days. After a 2-3 day egg-laying period, plants were taken from the adult whitefly room. Adults were blown off leaves using a hand-held Devilbliss sprayer (23 psi). Plants with egg infestation (100-300 eggs per plant) were placed in a holding room for 5-6 days at 82° F. and 50% RH for egg hatch and crawler stage to develop. Four cotton plants were used for each treatment. Compounds (2 mg) were dissolved in 1 mL of acetone solvent, forming stock solutions of 2000 ppm. The stock solutions were diluted 10× with 0.025% Tween 20 in water to obtain a test solution at 200 ppm. A hand-held Devilbliss sprayer was used for spraying a solution to both sides of cotton leaf until runoff. Reference plants (solvent check) were sprayed with the diluent only. Treated plants were held in a holding room for 8-9 days at approximately 82° F. and 50% RH prior to grading. Evaluation was conducted by counting the number of live nymphs per plant under a microscope.

[2] = tested on: Green Peach Aphid (Myzus persicae) (MYZUPE); assay: Bioassay on Green Peach Aphid (GPA), cabbage seedling foliar spray; format: in vivo; settings: 72 h, read-out: MYZUPE rating (% Control of Mortality, Abbott corrected)
Procedure: Several molecules disclosed herein were tested against GPA using procedures described below.
Cabbage seedling grown in 3-in pots, with 2-3 small (3-5 cm) true leaves, were used as test substrate. The seedlings were infested with […] (wingless adult and nymph stages) one day prior to chemical application. Four pots with individual seedlings were used for each treatment. Test compounds (2 mg) were dissolved in 2 mL of acetone/MeOH (1:1) solvent, forming stock solutions of 1000 ppm test compound. The stock solutions were diluted 5× with 0.025% Tween 20 in water to obtain the solution at 200 ppm test compound. A hand-held aspirator-type sprayer was used for spraying a solution to both sides of the cabbage leaves until runoff. Reference plants (solvent check) were sprayed with the diluent only containing 20% by volume acetone/MeOH (1:1) solvent. Treated plants were held in a holding room for three days at approximately 25° C. and ambient relative humidity (RH) prior to grading. Evaluation was conducted by counting the number of live aphids per plant under a microscope. Percent Control was measured by using Abbott's correction formula (W. S. Abbott, “A Method of Computing the Effectiveness of an Insecticide” J. Econ. Entomol 18 (1925), pp. 265-267) as follows. Corrected % Control=100*(X−Y)/X • where • X=No. of live aphids on solvent check plants and • Y=No. of live aphids on treated plants
The results are indicated in the table entitled “Table 1: GPA (MYZUPE) and sweetpotato whitefly-crawler (BEMITA) Rating Table”.

[3] = 200 ppm spray on cotton plants, live nymphs counted after 8-9 days
[4] = 200 ppm spray on cabbage seedlings, live aphids counted after three days

## Nc1c[nH]nc1Cl [Compound 1a, 3-Chloro-1H-pyrazol-4-amine hydrochloride]
[1]
  mortality at 200 ppm: 0 to 80%
[2]
  mortality at 200 ppm: 0 to 80%

## CC(=O)Nc1c[nH]nc1Cl [Compound 1b, N-(3-Chloro-1H-pyrazol-4-yl)acetamide]
[1]; [3]
  mortality at 200 ppm: 0 to 80%
[2]; [4]
  mortality at 200 ppm: 0 to 80%

## CC(=O)Nc1cn(-c2cccnc2)nc1Cl [Compound 1c, N-(3-Chloro-1-(pyridin-3-yl)-1H-pyrazol-4-yl)acetamide]
[1]; [3]
  mortality at 200 ppm: 0 to 80%
[2]; [4]
  mortality at 200 ppm: 0 to 80%

## CCNc1cn(-c2cccnc2)nc1Cl [Compound 1d, 3-Chloro-N-ethyl-1-(pyridin-3-yl)-1H-pyrazol-amine]
[1]; [3]
  mortality at 200 ppm: 0 to 80%
[2]; [4]
  mortality at 200 ppm: 0 to 80%

## CCN(C(=O)CCSCCC(F)(F)F)c1cn(-c2cccnc2)nc1Cl [Compound 5.1, N-(3-Chloro-1-(pyridin-3-yl)-1H-pyrazol-4-yl)-N-ethyl-3-((3,3,3-trifluoropropyl)thio)propanamide]
[1]; [3]
  mortality at 200 ppm: 80 to 100%
[2]; [4]
  mortality at 200 ppm: 80 to 100%

## CCN(C(=O)CC[S+]([O-])CCC(F)(F)F)c1cn(-c2cccnc2)nc1Cl (stereo not drawn) [Compound 8.1, N-(3-Chloro-1-(pyridin-3-yl)-1H-pyrazol-4-yl)-N-ethyl-3-((3,3,3-trifluoropropyl)sulfoxo)propanamide]
[1]; [3]
  mortality at 200 ppm: 80 to 100%
[2]; [4]
  mortality at 200 ppm: 80 to 100%
